The results in this text go back to ChEMBL document CHEMBL5465560, “Selectivity Literature for EUbOPEN Chemogenomic Library” (2024).

In experiment [1] the target is Cyclin-dependent kinase 18 (Homo sapiens) (UniProt Q07002). The experiment can be described thus: Selectivity interaction (Ambit KINOMEscan and KiNATiv profiling in Jurkat cells) EUB0000090b CDK18. It is filed as cell-based. Particulars: at 1 µM.
The target of experiment [2] is BDNF/NT-3 growth factors receptor (Homo sapiens) (UniProt Q16620). The experiment can be described thus: Selectivity interaction (SelectScreen Kinase Profiling (Thermo Fisher Scientific)) EUB0001558a NTRK2. As to conditions: at 1 µM.
Sequence of BDNF/NT-3 growth factors receptor (Homo sapiens) (Q16620 32-822 limits assumed): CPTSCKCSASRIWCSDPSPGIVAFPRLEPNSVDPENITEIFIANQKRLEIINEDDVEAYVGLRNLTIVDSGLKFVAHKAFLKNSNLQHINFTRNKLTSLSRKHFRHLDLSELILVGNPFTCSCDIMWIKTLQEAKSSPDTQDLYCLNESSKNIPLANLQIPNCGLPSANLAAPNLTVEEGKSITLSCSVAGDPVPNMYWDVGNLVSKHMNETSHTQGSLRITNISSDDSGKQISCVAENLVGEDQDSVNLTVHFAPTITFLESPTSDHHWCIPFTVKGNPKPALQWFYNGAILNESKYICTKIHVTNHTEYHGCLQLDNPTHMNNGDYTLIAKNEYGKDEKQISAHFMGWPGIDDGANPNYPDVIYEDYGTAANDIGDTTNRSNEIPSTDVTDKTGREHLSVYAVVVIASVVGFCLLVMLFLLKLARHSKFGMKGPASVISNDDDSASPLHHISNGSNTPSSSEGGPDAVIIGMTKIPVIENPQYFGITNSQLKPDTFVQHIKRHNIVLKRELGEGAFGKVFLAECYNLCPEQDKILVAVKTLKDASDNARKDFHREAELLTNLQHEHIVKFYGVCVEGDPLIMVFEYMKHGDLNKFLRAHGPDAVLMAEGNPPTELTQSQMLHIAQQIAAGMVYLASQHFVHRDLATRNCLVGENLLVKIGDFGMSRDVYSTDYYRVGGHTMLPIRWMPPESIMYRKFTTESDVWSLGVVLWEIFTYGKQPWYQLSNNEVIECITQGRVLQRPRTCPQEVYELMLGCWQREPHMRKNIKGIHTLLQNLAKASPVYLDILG
In experiment [3] the target is T1, Mitogen-activated protein kinase kinase kinase 15 (Homo sapiens) (UniProt Q6ZN16).
T1 sequence (whole entry): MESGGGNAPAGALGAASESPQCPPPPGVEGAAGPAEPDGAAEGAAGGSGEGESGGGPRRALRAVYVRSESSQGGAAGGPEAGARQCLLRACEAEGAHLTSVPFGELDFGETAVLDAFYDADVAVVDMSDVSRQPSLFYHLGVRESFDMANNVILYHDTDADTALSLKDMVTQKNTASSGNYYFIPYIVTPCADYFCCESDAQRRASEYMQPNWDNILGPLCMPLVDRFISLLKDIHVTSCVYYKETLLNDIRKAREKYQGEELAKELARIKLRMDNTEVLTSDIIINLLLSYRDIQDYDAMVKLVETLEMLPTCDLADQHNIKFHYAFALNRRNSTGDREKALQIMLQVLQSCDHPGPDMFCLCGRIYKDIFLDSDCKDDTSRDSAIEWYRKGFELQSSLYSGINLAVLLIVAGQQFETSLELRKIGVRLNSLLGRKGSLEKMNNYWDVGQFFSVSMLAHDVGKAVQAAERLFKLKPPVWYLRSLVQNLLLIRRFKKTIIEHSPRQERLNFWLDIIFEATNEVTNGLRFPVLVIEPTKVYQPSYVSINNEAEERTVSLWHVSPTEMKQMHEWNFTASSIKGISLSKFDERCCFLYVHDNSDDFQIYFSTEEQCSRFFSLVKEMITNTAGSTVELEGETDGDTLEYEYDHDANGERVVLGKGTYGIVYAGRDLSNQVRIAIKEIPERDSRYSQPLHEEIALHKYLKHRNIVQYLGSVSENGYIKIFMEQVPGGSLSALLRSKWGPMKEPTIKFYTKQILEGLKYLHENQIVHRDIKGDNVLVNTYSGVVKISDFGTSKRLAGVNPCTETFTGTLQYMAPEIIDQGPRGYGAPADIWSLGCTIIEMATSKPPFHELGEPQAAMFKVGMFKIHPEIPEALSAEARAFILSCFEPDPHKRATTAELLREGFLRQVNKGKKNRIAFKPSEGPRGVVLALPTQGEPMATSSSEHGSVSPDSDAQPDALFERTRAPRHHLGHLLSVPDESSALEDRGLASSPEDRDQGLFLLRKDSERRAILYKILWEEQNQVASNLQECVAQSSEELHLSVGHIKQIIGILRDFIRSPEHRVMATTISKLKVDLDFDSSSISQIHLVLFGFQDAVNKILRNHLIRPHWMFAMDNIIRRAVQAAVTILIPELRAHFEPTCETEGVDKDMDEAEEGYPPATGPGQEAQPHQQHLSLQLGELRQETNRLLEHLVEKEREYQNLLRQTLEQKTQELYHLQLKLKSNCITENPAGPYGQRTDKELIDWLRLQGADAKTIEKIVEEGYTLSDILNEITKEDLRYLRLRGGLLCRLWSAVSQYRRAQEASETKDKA
The experiment can be described thus: Selectivity interaction (KinomeScan (DiscoverX)) EUB0001079a MAP3K15. As to conditions: at 1 µM.

Experiment [4] is described as follows: Selectivity interaction (KinomeScan (DiscoverX)) EUB0001079a PKNB. As to conditions: at 1 µM.
The target of experiment [5] is Serine/threonine-protein kinase Nek6 (Homo sapiens) (UniProt Q9HC98). The experiment can be described thus: Selectivity interaction (Kinase panel (literature)) EUB0001199aCl NEK6. As to conditions: at 1 µM.
Sequence of Serine/threonine-protein kinase Nek6 (Homo sapiens) (Q9HC98 whole entry): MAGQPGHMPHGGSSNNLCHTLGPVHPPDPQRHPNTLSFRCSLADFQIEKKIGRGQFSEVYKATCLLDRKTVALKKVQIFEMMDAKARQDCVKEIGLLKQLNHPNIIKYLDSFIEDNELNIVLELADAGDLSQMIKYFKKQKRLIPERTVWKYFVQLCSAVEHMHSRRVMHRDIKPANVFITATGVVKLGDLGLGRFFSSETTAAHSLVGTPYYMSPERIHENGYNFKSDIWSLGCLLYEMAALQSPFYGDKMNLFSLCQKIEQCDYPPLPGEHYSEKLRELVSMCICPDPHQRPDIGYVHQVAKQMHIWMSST
Experiment [6] deals with T2, Dual specificity tyrosine-phosphorylation-regulated kinase 2 (Homo sapiens) (UniProt Q92630).
T2 sequence (whole entry): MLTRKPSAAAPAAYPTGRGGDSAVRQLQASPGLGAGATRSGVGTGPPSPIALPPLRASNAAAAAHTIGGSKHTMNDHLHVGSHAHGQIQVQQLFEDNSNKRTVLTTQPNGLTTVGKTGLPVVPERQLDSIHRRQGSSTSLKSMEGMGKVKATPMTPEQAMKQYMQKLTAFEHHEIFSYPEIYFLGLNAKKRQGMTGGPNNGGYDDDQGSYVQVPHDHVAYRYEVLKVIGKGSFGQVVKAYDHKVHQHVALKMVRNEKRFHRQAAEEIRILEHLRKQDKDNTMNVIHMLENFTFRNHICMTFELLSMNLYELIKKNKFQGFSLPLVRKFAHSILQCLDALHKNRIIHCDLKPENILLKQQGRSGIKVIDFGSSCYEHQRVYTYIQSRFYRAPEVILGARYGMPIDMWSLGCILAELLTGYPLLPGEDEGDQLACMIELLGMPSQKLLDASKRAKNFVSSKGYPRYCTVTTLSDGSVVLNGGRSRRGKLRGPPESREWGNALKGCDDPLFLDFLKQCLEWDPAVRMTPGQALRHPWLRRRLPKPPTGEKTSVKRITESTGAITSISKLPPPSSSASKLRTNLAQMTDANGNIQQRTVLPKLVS
Kind of experiment: Selectivity interaction (Kinase screening (Nanosyn)) EUB0000604a DYRK2.

The target in experiment [7] is Angiopoietin-1 receptor (Homo sapiens) (UniProt Q02763). The experiment can be described thus: Selectivity interaction (Millipore kinase profiler) EUB0000124b TEK. As to conditions: at 10 µM.
Sequence of Angiopoietin-1 receptor (Homo sapiens) (Q02763 whole entry): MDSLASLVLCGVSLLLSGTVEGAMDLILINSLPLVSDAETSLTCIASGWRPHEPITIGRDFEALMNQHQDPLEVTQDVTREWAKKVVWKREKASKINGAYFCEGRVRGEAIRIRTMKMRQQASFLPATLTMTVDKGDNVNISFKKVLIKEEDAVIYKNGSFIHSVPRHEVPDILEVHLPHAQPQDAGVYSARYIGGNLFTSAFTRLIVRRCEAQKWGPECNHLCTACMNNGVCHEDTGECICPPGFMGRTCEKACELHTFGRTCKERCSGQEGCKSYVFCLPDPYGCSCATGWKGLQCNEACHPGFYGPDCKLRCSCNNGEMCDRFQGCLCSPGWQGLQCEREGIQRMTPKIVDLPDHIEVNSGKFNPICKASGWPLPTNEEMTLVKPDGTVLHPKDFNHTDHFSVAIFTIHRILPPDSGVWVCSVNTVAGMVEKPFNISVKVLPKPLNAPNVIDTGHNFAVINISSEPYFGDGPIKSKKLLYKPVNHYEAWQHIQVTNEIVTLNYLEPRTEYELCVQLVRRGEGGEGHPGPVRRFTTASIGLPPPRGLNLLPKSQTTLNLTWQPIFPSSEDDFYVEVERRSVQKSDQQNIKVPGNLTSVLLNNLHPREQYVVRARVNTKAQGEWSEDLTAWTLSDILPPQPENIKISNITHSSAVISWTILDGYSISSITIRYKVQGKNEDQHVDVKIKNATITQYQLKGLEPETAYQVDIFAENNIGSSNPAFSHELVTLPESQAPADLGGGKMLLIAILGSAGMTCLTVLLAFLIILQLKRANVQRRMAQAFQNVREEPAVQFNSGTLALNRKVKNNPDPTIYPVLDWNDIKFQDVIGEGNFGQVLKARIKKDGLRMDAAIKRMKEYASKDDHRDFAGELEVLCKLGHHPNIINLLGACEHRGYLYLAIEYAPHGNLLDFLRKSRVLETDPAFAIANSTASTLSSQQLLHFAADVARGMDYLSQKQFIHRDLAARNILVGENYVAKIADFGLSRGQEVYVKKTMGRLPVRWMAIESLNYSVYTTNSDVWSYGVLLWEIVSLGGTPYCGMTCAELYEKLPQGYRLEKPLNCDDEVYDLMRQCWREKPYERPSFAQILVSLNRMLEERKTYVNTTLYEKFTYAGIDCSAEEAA
The target of experiment [8] is Mast/stem cell growth factor receptor Kit (Homo sapiens, UniProt P10721). Kind of experiment: Selectivity interaction (KinomeScan (DiscoverX)) EUB0001049a KIT. Particulars: at 1 µM.
The nature of experiment [9]: Selectivity interaction (Eurofins CEREP Diversity Profile (receptors and ion channels)) EUB0000279b CRH. Particulars: at 10 µM.
The target in experiment [10] is Casein kinase I isoform epsilon (Homo sapiens, UniProt P49674). Kind of experiment: Selectivity interaction (KinomeScan (DiscoverX)) EUB0000092b CSNK1E. Particulars: at 10 µM.
Experiment [11] relates to Phosphatidylinositol 4,5-bisphosphate 3-kinase catalytic subunit alpha isoform (Homo sapiens), P42336 [I800L]. As to conditions: at 10 µM.
Sequence of Phosphatidylinositol 4,5-bisphosphate 3-kinase catalytic subunit alpha isoform (Homo sapiens), P42336 [I800L] (P42336 whole entry I800L, canonical isoform): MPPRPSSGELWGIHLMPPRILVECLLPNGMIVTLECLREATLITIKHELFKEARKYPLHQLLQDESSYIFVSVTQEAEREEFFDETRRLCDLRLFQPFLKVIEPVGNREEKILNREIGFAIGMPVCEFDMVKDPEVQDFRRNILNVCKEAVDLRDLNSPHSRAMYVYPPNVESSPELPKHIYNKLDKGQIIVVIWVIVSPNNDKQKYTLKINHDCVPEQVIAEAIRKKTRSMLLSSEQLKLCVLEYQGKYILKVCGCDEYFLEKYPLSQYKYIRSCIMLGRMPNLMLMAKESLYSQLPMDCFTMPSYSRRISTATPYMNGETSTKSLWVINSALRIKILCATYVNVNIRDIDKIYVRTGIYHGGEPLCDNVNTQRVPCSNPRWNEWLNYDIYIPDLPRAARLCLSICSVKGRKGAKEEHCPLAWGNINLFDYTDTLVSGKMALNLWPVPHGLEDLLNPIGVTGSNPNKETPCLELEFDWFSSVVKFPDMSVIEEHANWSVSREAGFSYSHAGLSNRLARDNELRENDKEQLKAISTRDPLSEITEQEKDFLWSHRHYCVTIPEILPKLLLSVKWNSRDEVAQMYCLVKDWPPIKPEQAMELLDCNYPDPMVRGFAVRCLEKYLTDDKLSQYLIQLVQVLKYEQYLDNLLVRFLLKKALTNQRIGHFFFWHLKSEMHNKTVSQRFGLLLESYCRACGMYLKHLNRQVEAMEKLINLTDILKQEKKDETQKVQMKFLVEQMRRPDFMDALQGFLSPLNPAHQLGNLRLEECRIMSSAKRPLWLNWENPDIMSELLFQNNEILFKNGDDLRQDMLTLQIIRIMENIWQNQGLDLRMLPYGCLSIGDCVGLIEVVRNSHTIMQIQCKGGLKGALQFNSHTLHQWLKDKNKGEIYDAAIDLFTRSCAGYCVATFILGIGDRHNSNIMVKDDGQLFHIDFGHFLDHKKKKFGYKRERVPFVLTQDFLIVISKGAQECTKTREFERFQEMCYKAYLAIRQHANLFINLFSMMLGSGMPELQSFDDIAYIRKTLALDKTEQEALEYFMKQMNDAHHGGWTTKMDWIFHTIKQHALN
Experiment [12] addresses Cyclin-dependent kinase 7 (Homo sapiens, UniProt P50613). The experiment can be described thus: Selectivity interaction (KINOMEscan (DiscoverX, competition-binding assay)) EUB0001868a CDK7.
The target of experiment [13] is Serine/threonine-protein kinase tousled-like 2 (Homo sapiens) (UniProt Q86UE8). The experiment can be described thus: Selectivity interaction (KinomeScan (DiscoverX)) EUB0000045b TLK2.
Sequence of Serine/threonine-protein kinase tousled-like 2 (Homo sapiens) (Q86UE8 whole entry, looked up): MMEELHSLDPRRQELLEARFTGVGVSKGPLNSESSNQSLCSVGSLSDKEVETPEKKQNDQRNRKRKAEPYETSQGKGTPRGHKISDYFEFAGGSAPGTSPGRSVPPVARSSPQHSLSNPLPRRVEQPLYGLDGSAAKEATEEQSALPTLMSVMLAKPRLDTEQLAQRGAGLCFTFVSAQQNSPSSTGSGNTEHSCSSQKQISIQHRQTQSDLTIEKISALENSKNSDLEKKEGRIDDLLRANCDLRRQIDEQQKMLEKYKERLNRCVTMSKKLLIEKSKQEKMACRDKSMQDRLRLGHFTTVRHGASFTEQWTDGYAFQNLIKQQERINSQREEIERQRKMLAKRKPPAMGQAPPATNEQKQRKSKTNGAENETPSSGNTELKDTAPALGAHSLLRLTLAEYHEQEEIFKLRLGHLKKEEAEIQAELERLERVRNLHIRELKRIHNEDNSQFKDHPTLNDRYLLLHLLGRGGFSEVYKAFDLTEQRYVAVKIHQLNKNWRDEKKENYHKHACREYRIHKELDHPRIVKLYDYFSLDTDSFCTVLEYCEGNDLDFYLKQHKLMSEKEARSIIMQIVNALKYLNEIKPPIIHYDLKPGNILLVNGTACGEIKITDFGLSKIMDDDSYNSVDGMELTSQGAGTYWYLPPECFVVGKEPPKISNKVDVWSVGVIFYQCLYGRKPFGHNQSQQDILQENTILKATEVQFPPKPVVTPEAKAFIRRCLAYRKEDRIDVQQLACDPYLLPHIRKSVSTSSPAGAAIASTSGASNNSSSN
The target in experiment [14] is Serine/threonine-protein kinase NIM1 (Homo sapiens, UniProt Q8IY84). Kind of experiment: Selectivity interaction (KinomeScan (DiscoverX)) EUB0000595a NIM1K. As to conditions: at 10 µM.
Sequence of Serine/threonine-protein kinase NIM1 (Q8IY84 whole entry): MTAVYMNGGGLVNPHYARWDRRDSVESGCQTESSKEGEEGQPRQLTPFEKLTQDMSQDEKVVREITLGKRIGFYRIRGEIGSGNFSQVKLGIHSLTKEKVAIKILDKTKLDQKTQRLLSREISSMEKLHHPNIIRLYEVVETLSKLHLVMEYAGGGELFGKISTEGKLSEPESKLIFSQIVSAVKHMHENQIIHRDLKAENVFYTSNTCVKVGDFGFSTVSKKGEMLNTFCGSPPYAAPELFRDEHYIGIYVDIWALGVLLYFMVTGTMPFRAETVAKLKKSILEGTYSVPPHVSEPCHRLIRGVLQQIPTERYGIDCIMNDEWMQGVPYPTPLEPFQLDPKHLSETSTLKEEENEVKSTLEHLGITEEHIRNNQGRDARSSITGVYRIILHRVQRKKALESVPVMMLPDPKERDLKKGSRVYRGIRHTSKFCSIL

pKd: −log10 of the molar value.

Sequence of Cyclin-dependent kinase 7 (P50613 whole entry): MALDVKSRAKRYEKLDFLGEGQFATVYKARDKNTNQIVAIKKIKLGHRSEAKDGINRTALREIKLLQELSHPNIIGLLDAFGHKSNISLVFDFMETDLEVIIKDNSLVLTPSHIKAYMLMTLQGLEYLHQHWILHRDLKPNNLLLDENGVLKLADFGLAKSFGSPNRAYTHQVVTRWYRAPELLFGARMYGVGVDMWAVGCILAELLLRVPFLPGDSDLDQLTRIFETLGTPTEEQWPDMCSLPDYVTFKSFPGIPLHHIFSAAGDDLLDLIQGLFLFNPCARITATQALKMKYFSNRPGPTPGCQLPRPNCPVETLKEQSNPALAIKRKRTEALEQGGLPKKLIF

`CN(C)C/C=C/C(=O)Nc1ccc(C(=O)N2CCCC(Nc3ncc(Cl)c(-c4c[nH]c5ccccc45)n3)C2)cc1` (stereo not given) registered a % of control in experiment [1] of 59%.

`CC(C)(O)[C@H](F)CN1Cc2cc(NC(=O)c3cnn4cccnc34)c(N3CCOCC3)cc2C1=O` yielded a % of inhibition in [2] of 86%.

As for `Nc1cnc(N2CCc3cc(S(=O)(=O)Nc4c(F)cc(Cl)cc4F)cc(N4CCCC4=O)c32)nc1` [TP-020n], the % of control in experiment [3] worked out at 100%; in experiment [4] it was 96%.

`CN1Cc2nccc(-c3cn(C)nc3-c3ccc(F)cc3)c2C1=O` returned a % of inhibition in [5] of 5%.

In the case of `Cc1cnc(Nc2ccc(F)cc2Cl)nc1-c1c[nH]c(C(=O)N[C@H](CO)c2cccc(Cl)c2)c1`, the % of inhibition in [6] was 3%.

`CC(=O)Nc1cccc(-n2c(=O)n(C3CC3)c(=O)c3c(Nc4ccc(I)cc4F)n(C)c(=O)c(C)c32)c1` had a % of control in [7] of 103%.

Compound `COc1cc(Nc2nc(C)cc(-c3cnn4nc(OC)ccc34)n2)cc(C(F)(F)F)c1` gave a % of control in [8] of 75%.

As to `CC(=O)c1cc(-c2ccccc2OCC2CC2)c2ncccn12`, the % of control in [9] was determined as 118%.

Regarding `CCC(=O)N1CCN(c2ccc(-n3c(=O)ccc4cnc5ccc(-c6cnc7ccccc7c6)cc5c43)cc2C(F)(F)F)CC1`, the % of control in experiment [10] amounted to 59%; in [11], 0%.

In turn, `Cc1cc(-c2ccnc(Nc3cnn(C)c3)n2)ccc1CNC(=O)N1CC(OC(C)C)C1` had a pKd in experiment [12] of 6.06.

On to `C=CC(=O)Nc1cc(-n2c(=O)ccc3cnc4ccc(-c5ccc(NS(C)(=O)=O)cc5)cc4c32)ccc1C`, for which the % of control in experiment [13] (at 1 µM) and in [13] (at 10 µM) was 100% each time.

In the case of `COCC(=O)NC/C=C/c1ccc2ncnc(Nc3ccc(Oc4ccc(C)nc4)c(C)c3)c2c1` [CP-724714], the % of control in experiment [14] is 87%.
